Source: PubChem BioAssay AID602160 (Broad Institute, 2011)
Records with an inconclusive call do not appear.

Molecular target: Plasmodium falciparum Hsp90 (expressed in yeast GR reporter strain)
Experiment: GR-driven beta-gal reporter inhibition, PfHsp90 yeast strain – S. cerevisiae, beta-gal luminescence, dry powder samples, dose response (AID 602160)

AC50	Structure (SMILES)
19.6 µM	O=C(CSCC(=O)N1CCCCC1)Nc1nc(-c2ccc(Cl)s2)cs1
20.2 µM	Cc1ccc(OCc2n[nH]c(=S)n2C2CCCCC2)cc1
10.7 µM	O=S(=O)(NC1CCCCCC1)c1ccc(Br)s1
15.1 µM	O=S(=O)(/C=C/c1ccccc1)NC1CCCCCCC1
